Experimental data reported in patent US9938261B2, “Heterocyclic compounds and methods of use thereof” (AMBIT BIOSCIENCES CORPORATION, priority 2011, dated 2018).
pIC50, pKd: −log10 of the molar value.

Assays:
KIT = target: T1, KIT (Homo sapiens, UniProt P10721); assay: Competition binding assay, KIT Kd; conditions: competition binding
T1 construct: made in house
In short: (§1)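 Kinases, either T7 phage fusions or HEK-293-expressed and DNA-tagged, competed with test compounds for immobilized biotinylated affinity ligand on streptavidin beads in binding buffer (20% SeaBlock, 0.17×PBS, 0.05% Tween 20, 6 mM DTT). After 1 hour at room temperature, bead-bound kinase was eluted and quantified by qPCR; Kd from eleven-point threefold dilutions.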

PDGFRβ = target: T2, PDGFRβ (Homo sapiens, UniProt P09619); assay: Competition binding assay, PDGFRβ Kd; conditions: competition binding
T2 construct: made in house
T2 sequence (P09619 33-1106): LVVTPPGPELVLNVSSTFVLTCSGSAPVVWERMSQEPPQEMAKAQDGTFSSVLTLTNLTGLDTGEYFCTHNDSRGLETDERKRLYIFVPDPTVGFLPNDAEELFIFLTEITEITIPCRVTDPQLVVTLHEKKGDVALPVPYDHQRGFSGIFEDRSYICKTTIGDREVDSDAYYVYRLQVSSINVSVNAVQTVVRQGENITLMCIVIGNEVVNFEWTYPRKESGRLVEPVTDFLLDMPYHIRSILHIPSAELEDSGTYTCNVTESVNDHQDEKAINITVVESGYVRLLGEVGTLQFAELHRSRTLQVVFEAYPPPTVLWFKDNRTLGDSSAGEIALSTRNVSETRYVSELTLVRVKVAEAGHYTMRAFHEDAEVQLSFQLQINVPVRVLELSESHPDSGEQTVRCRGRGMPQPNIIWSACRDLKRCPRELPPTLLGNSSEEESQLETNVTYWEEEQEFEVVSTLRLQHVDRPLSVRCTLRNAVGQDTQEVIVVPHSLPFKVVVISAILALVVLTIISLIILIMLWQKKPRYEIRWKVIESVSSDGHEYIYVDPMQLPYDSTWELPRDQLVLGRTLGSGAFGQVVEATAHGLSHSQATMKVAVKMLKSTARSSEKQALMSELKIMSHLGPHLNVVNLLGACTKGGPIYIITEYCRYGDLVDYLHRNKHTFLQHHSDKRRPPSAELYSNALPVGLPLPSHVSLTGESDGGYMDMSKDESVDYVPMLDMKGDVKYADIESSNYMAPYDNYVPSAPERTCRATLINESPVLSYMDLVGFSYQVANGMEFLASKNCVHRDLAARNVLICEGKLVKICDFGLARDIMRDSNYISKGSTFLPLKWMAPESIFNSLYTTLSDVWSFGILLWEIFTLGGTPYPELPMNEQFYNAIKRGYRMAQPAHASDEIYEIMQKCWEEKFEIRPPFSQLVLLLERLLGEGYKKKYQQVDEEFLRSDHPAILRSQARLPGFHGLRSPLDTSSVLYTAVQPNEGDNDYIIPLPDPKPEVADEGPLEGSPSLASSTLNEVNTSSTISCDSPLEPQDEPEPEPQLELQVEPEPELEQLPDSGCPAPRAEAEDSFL
In short: as §1

[1] = target: kinase panel containing either 386 or 392 distinct kinases; assay: Kinase selectivity score S10 from competition binding panel; conditions: 10 μM, panel of 386 or 392 distinct kinases
In short: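 S10 is the number of kinases with percent-of-control under 10, divided by all distinct wild-type kinases tested, from a single 10 μM concentration. Binding measured by qPCR of kinase recovered from ligand-coated beads after 1 h equilibrium at room temperature; kinases were phage fusions or DNA-tagged HEK-293 products.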

CSF1R [2] = target: T3, CSF1R (Homo sapiens, UniProt P07333); assay: Competition binding assay, CSF1R Kd; design: made in house; conditions: competition binding
T3 sequence (P07333 20-972): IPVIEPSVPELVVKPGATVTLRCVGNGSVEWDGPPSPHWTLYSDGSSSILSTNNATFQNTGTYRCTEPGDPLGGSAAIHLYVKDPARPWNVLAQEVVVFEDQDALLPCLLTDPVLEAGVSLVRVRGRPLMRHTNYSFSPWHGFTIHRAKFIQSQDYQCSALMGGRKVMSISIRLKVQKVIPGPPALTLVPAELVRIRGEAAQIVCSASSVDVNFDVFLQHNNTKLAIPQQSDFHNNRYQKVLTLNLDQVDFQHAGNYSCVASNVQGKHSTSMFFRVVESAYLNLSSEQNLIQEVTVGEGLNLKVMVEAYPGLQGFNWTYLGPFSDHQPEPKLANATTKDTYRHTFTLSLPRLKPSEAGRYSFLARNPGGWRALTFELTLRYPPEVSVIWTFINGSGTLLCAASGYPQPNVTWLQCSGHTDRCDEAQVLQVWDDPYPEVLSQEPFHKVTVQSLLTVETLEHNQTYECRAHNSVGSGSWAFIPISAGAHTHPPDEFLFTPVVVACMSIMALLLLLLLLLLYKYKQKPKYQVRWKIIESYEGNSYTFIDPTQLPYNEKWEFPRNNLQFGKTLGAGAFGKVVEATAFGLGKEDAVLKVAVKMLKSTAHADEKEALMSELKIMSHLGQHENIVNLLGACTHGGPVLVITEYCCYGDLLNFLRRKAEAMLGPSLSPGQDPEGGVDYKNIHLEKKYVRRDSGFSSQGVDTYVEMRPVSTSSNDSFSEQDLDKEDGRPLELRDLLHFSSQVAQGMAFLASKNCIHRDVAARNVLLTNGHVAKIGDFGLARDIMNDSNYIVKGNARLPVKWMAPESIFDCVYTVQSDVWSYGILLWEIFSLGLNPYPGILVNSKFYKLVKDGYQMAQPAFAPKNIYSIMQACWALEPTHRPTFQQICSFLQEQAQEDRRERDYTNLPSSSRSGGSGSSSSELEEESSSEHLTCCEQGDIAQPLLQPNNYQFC
In short: as §1

CSF1R [3] = target: T3, CSF1R; assay: HEK293 CSF1R phosphorylation MSD assay; format: cell-based; design: expressed in transfected cells; host or cells: HEK293; conditions: HEK293 cells, M-CSF stimulated CSF1R phosphorylation, MSD; read-out: HEK293 pCSF1R M-CSF MSD:IC50
In short: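 Ligand-induced CSF1R autophosphorylation was measured by MSD sandwich assay: CSF1R-FKBP from lysates captured via FK506, anti-phosphotyrosine readout. Cells were exposed to compound for 2 h (9-point, half-log, 0.5% DMSO) before 5 min 50 ng/mL M-CSF. Reported IC50 is the mean of duplicate-plate IC50s relative to DMSO control.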

T1 sequence (P10721 26-976): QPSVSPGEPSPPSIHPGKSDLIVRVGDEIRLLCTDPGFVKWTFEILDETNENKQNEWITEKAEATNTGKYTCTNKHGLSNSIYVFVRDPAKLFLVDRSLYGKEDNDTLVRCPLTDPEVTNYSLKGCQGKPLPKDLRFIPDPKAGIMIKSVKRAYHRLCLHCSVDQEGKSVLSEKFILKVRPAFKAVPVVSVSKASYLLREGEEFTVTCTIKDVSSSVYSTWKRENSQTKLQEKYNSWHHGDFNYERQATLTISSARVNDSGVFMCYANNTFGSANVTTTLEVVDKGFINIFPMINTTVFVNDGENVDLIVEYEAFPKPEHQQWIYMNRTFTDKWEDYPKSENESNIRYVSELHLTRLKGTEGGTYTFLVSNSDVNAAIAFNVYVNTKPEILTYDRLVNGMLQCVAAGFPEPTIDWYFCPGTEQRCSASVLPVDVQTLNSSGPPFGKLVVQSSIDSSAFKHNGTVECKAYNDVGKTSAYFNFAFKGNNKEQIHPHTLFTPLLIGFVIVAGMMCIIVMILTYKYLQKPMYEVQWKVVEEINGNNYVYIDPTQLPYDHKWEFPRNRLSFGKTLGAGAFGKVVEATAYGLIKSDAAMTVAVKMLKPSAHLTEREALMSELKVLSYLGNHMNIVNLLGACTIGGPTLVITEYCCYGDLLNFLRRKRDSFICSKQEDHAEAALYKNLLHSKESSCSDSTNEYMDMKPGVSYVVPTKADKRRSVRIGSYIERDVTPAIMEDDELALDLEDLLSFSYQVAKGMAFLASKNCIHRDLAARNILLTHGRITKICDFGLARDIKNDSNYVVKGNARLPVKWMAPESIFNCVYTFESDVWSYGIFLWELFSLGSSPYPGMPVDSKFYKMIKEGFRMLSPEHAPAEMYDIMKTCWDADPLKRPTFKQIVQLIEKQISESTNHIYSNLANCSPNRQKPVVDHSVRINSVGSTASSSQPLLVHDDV

Structure (SMILES)	pKd (KIT)	pKd (PDGFRβ)	Kinase specificity S(10) [1]	pKd (CSF1R [2])	pIC50 (CSF1R [3])
O[C@@H]1CCCC[C@H]1Nc1nc2ccc(Cc3cnc4cc(-n5cncn5)ccn34)cc2s1 [Example 169, (1R,2R)-2-((6-((7-(1H-1,2,4-triazol-1-yl)imidazo[1,2-a]pyridin-3-yl)methyl)benzo[d]thiazol-2-yl)amino)cyclohexanol]	5.70 to 6.30	6.30 to 7.30	A (A≤0.01)	7.70 to 8.30	6.70 to 7.30
N#Cc1ccc2c(c1)ncn2Cc1ccc2nc(N[C@@H]3CCCC[C@H]3O)oc2c1 [Example 170, 1-((2-(((1R,2R)-2-hydroxycyclohexyl)amino)benzo[d]oxazol-6-yl)methyl)-1H-benzo[d]imidazole-5-carbonitrile]	< 5.70	5.70 to 6.30	A (A≤0.01)	< 7.30	< 6.30
O[C@@H]1CCCC[C@H]1Nc1nc2ccc(Cn3cnc4cc(OCCN5CCOCC5)ccc43)cc2s1 [Example 171, (1R,2R)-2-((6-((5-(2-morpholinoethoxy)-1H-benzo[d]imidazol-1-yl)methyl)benzo[d]thiazol-2-yl)amino)cyclohexanol]	≥ 7.00	≥ 7.30	C (C>0.02)	7.70 to 8.30	≥ 7.30
OCCOc1ccc2c(c1)ncn2Cc1ccc2nc(N[C@@H]3CCCC[C@H]3O)sc2c1 [Example 172, (1R,2R)-2-((6-((5-(2-hydroxyethoxy)-1H-benzo[d]imidazol-1-yl)methyl)benzo[d]thiazol-2-yl)amino)cyclohexanol]	6.30 to 7.00	6.30 to 7.30	B (0.01<B≤0.02)	≥ 8.30	≥ 7.30
CNC(=O)c1ccc2c(c1)ncn2Cc1ccc2nc(N[C@@H]3CCCC[C@H]3O)sc2c1 [Example 173, 1-((2-(((1R,2R)-2-hydroxycyclohexyl)amino)benzo[d]thiazol-6-yl)methyl)-N-methyl-1H-benzo[d]imidazole-5-carboxamide]	6.30 to 7.00	6.30 to 7.30	B (0.01<B≤0.02)	7.70 to 8.30	6.70 to 7.30
C=C(c1ccc2c(c1)ncn2Cc1ccc2nc(N[C@@H]3CCCC[C@H]3O)sc2c1)C(F)(F)F [Example 175, (1R,2R)-2-((6-((5-(3,3,3-trifluoroprop-1-en-2-yl)-1H-benzo[d]imidazol-1-yl)methyl)benzo[d]thiazol-2-yl)amino)cyclohexanol]	6.30 to 7.00	6.30 to 7.30	A (A≤0.01)	7.70 to 8.30	6.70 to 7.30
Fc1cnc2c(c1)ncn2Cc1ccc2nc(N[C@H]3C=CCCC3)sc2c1 [Example 176, (R)—N-(cyclohex-2-en-1-yl)-6-((6-fluoro-3H-imidazo[4,5-b]pyridin-3-yl)methyl)benzo[d]thiazol-2-amine]	6.30 to 7.00	6.30 to 7.30	B (0.01<B≤0.02)	7.70 to 8.30	6.30 to 6.70
N#Cc1ccc2ncc(Cc3ccc4nc(N[C@@H]5CCCC[C@H]5O)sc4c3)n2n1 [Example 221, 3-((2-(((1R,2R)-2-hydroxycyclohexyl)amino)benzo[d]thiazol-6-yl)methyl)imidazo[1,2-b]pyridazine-6-carbonitrile]	≥ 7.00	≥ 7.30	B (0.01<B≤0.02)	≥ 8.30	≥ 7.30
O=c1c(N2CCOCC2)nccn1Cc1ccc2nc(N[C@@H]3CCCC[C@H]3O)sc2c1 [Example 222, 1-((2-(((1R,2R)-2-hydroxycyclohexyl)amino)benzo[d]thiazol-6-yl)methyl)-3-morpholinopyrazin-2(1H)-one]	< 5.70	5.70 to 6.30	A (A≤0.01)	7.30 to 7.70	< 6.30
O=C(c1ccn2c(Cc3ccc4nc(N[C@@H]5CCCC[C@H]5O)sc4c3)cnc2c1)N1CCCC1 [Example 223, (3-((2-(((1R,2R)-2-hydroxycyclohexyl)amino)benzo[d]thiazol-6-yl)methyl)imidazo[1,2-a]pyridin-7-yl)(pyrrolidin-1-yl)methanone]	6.30 to 7.00	6.30 to 7.30	A (A≤0.01)	7.70 to 8.30	6.70 to 7.30
